Results reported in US20140066410A1, “INHIBITORS OF BROMODOMAINS AS MODULATORS OF GENE EXPRESSION” (ICAHN SCHOOL OF MEDICINE AT MOUNT SINAI, priority 2011, published 2014).
“Also recorded” adds a separate entry of the source.

Tests used:
CBP/p300 = assay: Fluorescence-based lysine acetyltransferase assay with histone H3 peptide substrate; assay type: biochemical; settings: data not shown
Excerpt: (§1) The latter argues that ATM is active in presence of ischemin, which is consistent with our analysis using Western blots (FIG. 2B).

U20S cells = assay: BRDU incorporation / cell cycle analysis; assay type: cell-based
Procedure: BRDU incorporation assay for cell cycle evaluation was performed in 96 well plates using calorimetric based kit from Calbiochem (Cat# QiA58). Hundred microliter of 1×10^5/ml cells were plated in DMEM media (Mediatech) with 10% fetal bovine serum (FBS). After 12 hours cells were treated with compounds ischemin and MS 119 (50 μM) with or without doxorubicin treatment (5 μM). The controls were DMSO and untreated cells. BRDU was added for 24 hours treatment. After 24 hours cells were fixed and treated with anti-BRDU antibody. After washings, the wells were incubated with peroxidase. After final wash, the color was developed using TMB as substrate and the reaction was stopped with stop solution and optical density was estimated at 450 nm.
DNA damage induced by doxorubicin leads to p53 stimulated cellular responses including cell cycle arrest, damage repair, and apoptosis. To determine the effect of ischemin on dividing U20S cells, U20S cells were treated with 5-bromo-2-deoxyuridine (BRDU) and the incorporated BRDU during in DNA synthesis was measured using an ELISA assay.

caspase 3/7 = assay: Caspase 3/7 assay in cardiomyocytes; assay type: cell-based, rat; settings: doxorubicin-induced
Procedure: Neonatal rat ventricular myocytes (NRVMs) were isolated by enzymatic dissociation of cardiac ventricle from 1-to-2-day-old Sprague-Dawley pups using the Worthington neonatal cardiomyocyte isolation system (Worthington). Briefly, the pups were anesthetized and their hearts were excised. The ventricular tissues were minced in ice cold HBSS and then digested with trypsin overnight at 4° C. followed by collagenase treatment for 45 min at 37° C. Cells were collected by centrifugation at 800 rpm for 5 min and subsequently underwent two rounds of preplating on culture dishes to minimize nonmyocyte contamination. The enriched cardiomyocytes were cultured in DMEM/F12 nutrient mixture (Invitrogen) with 10% horse serum and 5% fetal calf serum (Invitrogen). After 48 hours, the medium was changed to DMEM/F12 containing 1% insulin, transferrin, and selenium media supplement (ITS; Invitrogen) and 0.1% BSA.
Caspase 3/7 and TUNEL assays were performed to assess inhibition of apoptosis by ischemin. Caspase assay and TUNEL assays were performed using Caspase-Glo 3/7 and DeadEnd kits from Promega. Caspase assay was performed on live cardiomyocytes in 96 wells plate on three different days. Similarly, TUNEL assay was performed in triplicate on three different days. […] After treatment with compounds overnight and then doxorubicin for 24 hours, the intensities of luminecnce were read. […]

p53 binding to CBP = biological target: T1, p53 binding to CBP (Homo sapiens, UniProt Q92793); assay: HA-CBP and Flag-p53 pull-down assay in HEK 293T cells; assay type: cell-based; settings: doxorubicin treatment
T1 construct: expressed in transfected cells; host or cells: HEK 293T
T1 sequence (Q92793 whole entry): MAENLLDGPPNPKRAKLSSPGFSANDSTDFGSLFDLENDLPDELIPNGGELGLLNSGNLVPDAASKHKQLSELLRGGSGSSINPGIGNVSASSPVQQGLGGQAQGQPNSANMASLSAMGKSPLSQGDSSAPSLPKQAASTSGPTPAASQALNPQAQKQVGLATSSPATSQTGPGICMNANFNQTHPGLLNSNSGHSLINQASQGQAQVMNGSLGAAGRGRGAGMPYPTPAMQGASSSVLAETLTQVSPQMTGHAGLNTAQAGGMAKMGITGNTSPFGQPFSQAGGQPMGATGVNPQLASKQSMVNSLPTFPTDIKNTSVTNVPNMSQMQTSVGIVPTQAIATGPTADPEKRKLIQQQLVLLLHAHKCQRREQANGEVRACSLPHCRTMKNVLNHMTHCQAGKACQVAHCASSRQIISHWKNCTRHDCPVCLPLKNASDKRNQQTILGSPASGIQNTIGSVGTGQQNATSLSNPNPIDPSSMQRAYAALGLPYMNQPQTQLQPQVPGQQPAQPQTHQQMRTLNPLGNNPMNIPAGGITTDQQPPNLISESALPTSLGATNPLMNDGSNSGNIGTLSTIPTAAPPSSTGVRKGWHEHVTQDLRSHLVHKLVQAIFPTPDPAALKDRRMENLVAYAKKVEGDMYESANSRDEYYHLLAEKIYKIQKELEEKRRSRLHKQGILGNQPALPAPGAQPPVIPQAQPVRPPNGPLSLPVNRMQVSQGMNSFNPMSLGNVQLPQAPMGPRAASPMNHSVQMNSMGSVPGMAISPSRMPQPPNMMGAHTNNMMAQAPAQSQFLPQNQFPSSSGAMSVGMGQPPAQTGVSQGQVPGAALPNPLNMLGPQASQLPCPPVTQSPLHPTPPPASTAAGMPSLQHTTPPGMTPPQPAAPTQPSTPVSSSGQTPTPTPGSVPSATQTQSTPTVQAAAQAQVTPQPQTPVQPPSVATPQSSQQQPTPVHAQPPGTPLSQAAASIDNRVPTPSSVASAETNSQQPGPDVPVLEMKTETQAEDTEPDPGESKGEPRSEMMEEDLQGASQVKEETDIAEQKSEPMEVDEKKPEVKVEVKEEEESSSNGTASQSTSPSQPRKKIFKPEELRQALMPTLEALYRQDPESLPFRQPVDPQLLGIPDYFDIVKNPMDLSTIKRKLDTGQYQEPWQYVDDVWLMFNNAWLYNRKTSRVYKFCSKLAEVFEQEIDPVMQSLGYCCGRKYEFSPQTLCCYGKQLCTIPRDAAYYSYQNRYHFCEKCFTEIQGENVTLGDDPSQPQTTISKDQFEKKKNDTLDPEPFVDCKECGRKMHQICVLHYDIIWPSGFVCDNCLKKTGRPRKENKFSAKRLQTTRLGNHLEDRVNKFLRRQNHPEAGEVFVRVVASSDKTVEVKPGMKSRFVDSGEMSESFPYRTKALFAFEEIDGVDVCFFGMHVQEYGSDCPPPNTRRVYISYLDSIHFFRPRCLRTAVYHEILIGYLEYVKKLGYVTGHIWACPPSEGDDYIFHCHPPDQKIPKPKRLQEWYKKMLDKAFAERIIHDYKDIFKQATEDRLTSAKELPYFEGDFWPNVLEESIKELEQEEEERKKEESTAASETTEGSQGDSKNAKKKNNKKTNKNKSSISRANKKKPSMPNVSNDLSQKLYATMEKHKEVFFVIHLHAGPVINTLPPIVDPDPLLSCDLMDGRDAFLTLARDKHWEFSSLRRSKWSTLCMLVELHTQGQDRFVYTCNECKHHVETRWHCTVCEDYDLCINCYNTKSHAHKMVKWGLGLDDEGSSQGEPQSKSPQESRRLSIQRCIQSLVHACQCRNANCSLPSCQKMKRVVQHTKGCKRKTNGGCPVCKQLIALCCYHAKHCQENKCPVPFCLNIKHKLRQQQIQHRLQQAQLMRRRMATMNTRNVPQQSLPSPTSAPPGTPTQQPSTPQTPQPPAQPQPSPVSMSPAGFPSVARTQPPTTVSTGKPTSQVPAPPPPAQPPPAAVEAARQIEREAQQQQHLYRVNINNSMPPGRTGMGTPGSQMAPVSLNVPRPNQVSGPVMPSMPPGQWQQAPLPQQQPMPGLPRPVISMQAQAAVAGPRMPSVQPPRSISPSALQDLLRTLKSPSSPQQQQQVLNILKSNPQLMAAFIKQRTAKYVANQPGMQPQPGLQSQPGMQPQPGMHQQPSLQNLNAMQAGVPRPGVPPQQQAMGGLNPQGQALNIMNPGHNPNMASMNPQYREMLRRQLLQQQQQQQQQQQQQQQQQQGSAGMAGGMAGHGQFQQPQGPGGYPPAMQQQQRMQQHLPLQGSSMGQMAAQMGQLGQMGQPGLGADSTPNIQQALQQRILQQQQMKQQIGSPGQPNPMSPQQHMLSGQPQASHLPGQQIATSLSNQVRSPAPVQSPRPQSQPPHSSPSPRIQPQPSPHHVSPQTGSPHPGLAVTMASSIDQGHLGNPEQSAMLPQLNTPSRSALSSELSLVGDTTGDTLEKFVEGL
Procedure: HA-CBP and Flag-p53 were transfected into human embryonic kidney (HEK) 293T cells with recommended amount of Fugene 6 (Roche). After transfection, the HA-CBP and Flag-p53 co-transfected cells were treated with ischemin in the presence or absence of doxorubicin. To test the inhibitory potential of ischemin against CBP and p53 association, CBP was first immuno-precipitated by pulling-down with HA-agarose beads (Sigma) and its association with p53 was then determined with western blot using anti-Flag antibody (Sigma).
It was also investigated whether ischemin down-regulates p53 by blocking p53 binding to CBP. Haemaglutinin-tagged CBP(HA-CBP) and Flag-tagged p53 (Flag-p53) was overexpressed in human embryonic kidney (HEK) 293T cells.

p53 = assay: Immunoblot of doxorubicin-treated primary neonatal rat cardiomyocytes; assay type: cell-based
Excerpt: FIG. 4. Ischemin functions a cellular protective agent against myocardial ischemic stress. (A) TUNEL assay showing ischemin inhibition of doxorubicin-induced apoptosis in rat neonatal cardiomyocytes. (B) Evaluation of ischemin effects in U20S cells and cardiomyocytes. The immunoblots show down-regulation of doxorubicin-induced activated p53 in both cell types in the presence of ischemin, while levels of H2XS139p remained the same. (C) Inhibition of doxorubicin-induced caspase 3/7 activation in cardiomyocytes by ischemin.
as §1

cardiomyocytes = assay: TUNEL apoptosis assay in primary neonatal rat cardiomyocytes; assay type: cell-based
Procedure: The ability of ischemin to inhibit apoptosis in cardiomyocytes under DNA damage stress was evaluated. Primary neonatal rat cardiomyocytes were isolated and maintained in culture, then, treated with doxorubicin for 24 hours to induce DNA damage in the presence or absence of ischemin. The DNA damage induced by apoptosis was analyzed by the TUNEL (terminal deoxynucleotidyl transferase dUTP nick and end labeling) assay, in which a terminal deoxynucleotidyl transferase was used to identify 3′-OH of DNA generated by DNA fragmentation resulting from apoptosis, and then labels it with biotinylated dUTP. The latter was then detected with avidin-conjugated FITC for specific staining. Neonatal rat ventricular myocytes (NRVMs) were isolated by enzymatic dissociation of cardiac ventricle from 1-to-2-day-old Sprague-Dawley pups using the Worthington neonatal cardiomyocyte isolation system (Worthington). Briefly, the pups were anesthetized and their hearts were excised. The ventricular tissues were minced in ice cold HBSS and then digested with trypsin overnight at 4° C. followed by collagenase treatment for 45 min at 37° C. […] After treatment with compounds overnight and then doxorubicin for 24 hours, the intensities of luminecnce were read. […]

Cc1cc(/N=N/c2cc(S(=O)(=O)O)c(C)cc2C)c(N)cc1O [Ischemin/MS120, 5-(2-amino-4-hydroxy-5-methylphenylazo)-2,4-dimethylbenzenesulfonic acid]
Direct inhibition of lysine acetyltransferase activity of CBP/p300 (CBP/p300): ruled out
Toxicity to U20S cells (U20S cells; 50 μM): not toxic
Prevention of doxorubicin-induced cell cycle arrest (decrease of BRDU incorporation) (U20S cells; compound 50 μM, doxorubicin 5 μM, U20S cells): almost completely prevented; also recorded: prevents a doxorubicin-induced decrease of BRDU incorporation
Caspase 3/7 activity (caspase 3/7): inhibiting caspase 3/7 activity in a dose-dependent manner
Inhibition of p53 binding to CBP (p53 binding to CBP): inhibiting in a dose-dependent manner
Doxorubicin induced p53 activation (p53): able to inhibit
H2AX phosphorylation at Ser139 (p53): did not alter
Toxicity in cardiomyocytes (cardiomyocytes; ischemin alone): no toxicity
Inhibition of doxorubicin-induced apoptosis (TUNEL) (cardiomyocytes; neonatal rat cardiomyocytes, doxorubicin 24 hours): effectively inhibit
